system: hRXR α, β, or γ; test: Transactivation assay (RARE-Luc dual luciferase reporter in HEK-293 cells), activity relative to LG268; assay type: cell-based, human; conditions: compound at 300 nM, 24 h; luciferase activity expressed relative to LG268
Method in brief: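 HEK-293 cells co-transfected with hRXR α, β or γ expression vector, RARE-firefly luciferase and renilla luciferase; 24 h later treated with agonist (100 nM, 300 nM, 1 uM) for 24 h. Firefly signal normalized to renilla; activity expressed relative to the RXR agonist LG268.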

SMILES	Activity at 300 nM
CC(C)CN(c1ccc(C(=O)O)cn1)c1nc2c(s1)C(C)(C)C=CC2(C)C [Compound 82, 6-[(2-methylpropyl) (4,4,7,7-tetramethyl-4,7-dihydro-1,3-benzothiazol-2-yl)amino]pyridine-3-carboxylic acid]	***** (>0.6)
CC1(C)CCC(C)(C)c2sc(Nc3ccc(C(=O)O)cc3O)nc21 [Compound 92, 3-hydroxy-4-[(4,4,7,7-tetramethyl-4,5,6,7-tetrahydro-1,3-benzothiazol-2-yl)amino]benzoic acid]	* (<0.3)
COc1cc(N(CC(C)C)c2nc3c(s2)C(C)(C)CCC3(C)C)ccc1C(=O)O [Compound 73, 2-methoxy-4-[(2-methylpropyl) (4,4,7,7-tetramethyl-4,5,6,7-tetrahydro-1,3-benzothiazol-2-yl)amino]benzoic acid]	** (>0.3 and <0.4)
CC(C)CN(c1ccc(C(=O)O)cc1)c1nc2c(s1)C(C)(C)C=CC2(C)C [Compound 83, 4-[(2-methylpropyl) (4,4,7,7-tetramethyl-4,7-dihydro-1,3-benzothiazol-2-yl)amino]benzoic acid]	* (<0.3)
Cc1c(N(CC(C)C)c2ccc(C(=O)O)c(N)c2)sc2c1C(C)(C)CCC2(C)C [Compound 79, 2-amino-4-[(2-methylpropyl) (3,4,4,7,7-pentamethyl-4,5,6,7-tetrahydro-1-benzothiophen-2-yl)amino]benzoic acid]	***** (>0.6)
CC1(C)CCC(C)(C)c2sc(Oc3ccc(C(=O)O)cc3)nc21 [Compound 46, 4-[(4,4,7,7-Tetramethyl-4,5,6,7-tetrahydro-1,3-benzothiazol-2-yl)oxy]benzoic acid]	** (>0.3 and <0.4)
C=CCN(c1ccc(C(=O)O)cc1)c1nc2c(s1)C(C)(C)CCC2(C)C [Compound 62, 4-[prop-2-en-1-yl(4,4,7,7-tetramethyl-4,5,6,7-tetrahydro-1,3-benzothiazol-2-yl)amino]benzoic acid]	***** (>0.6)

same assay, conditions: compound at 1 µM, 24 h; luciferase activity expressed relative to LG268

SMILES	Activity at 1 µM
CC1(C)CCC(C)(C)c2sc(-n3nnc4cc(C(=O)O)ccc43)nc21 [Compound 45, 1-(4,4,7,7-Tetramethyl-4,5,6,7-tetrahydro-1,3-benzothiazol-2-yl)-1H-benzotriazole-5-carboxylic acid]	* (<0.7)
Cc1c(C2(c3ccc(C(=O)O)cc3)CC2)sc2c1C(C)(C)CCC2(C)C [Compound 2, 4-[1-(3,4,4,7,7-pentamethyl-4,5,6,7-tetrahydro-1-benzothiophen-2-yl)cyclopropyl]benzoic acid]	***** (>1)
CC1(C)CCC(C)(C)c2sc(N(c3ccc(C(=O)O)cn3)C3CC3)nc21 [Compound 37, 6-[Cyclopropyl(4,4,7,7-tetramethyl-4,5,6,7-tetrahydro-1,3-benzothiazol-2-yl)amino]pyridine-3-carboxylic acid]	***** (>1)
CC1(C)CCC(C)(C)c2sc(Oc3ccc(C(=O)O)cc3)nc21 [Compound 46, 4-[(4,4,7,7-Tetramethyl-4,5,6,7-tetrahydro-1,3-benzothiazol-2-yl)oxy]benzoic acid]	* (<0.7)

system: HL-60 promyelocytic leukemia cell line; test: HL-60 differentiation (NBT reduction); assay type: cell-based; conditions: 72 h culture, NBT reduction at 540 nm
Protocol: Progression of promyelocytic leukemia can be abrogated by their differentiation. […] In order to estimate the differentiating ability of compound-40, HL-60 promyelocytic leukemia cell line was used as an in vitro model of the disease. HL-60 cells were cultured for 72 h as either control or under treatment as mentioned. After 72 h of culture, cells were exposed to nitro blue tetrazolium (NBT) solution containing phorbol myristate acetate (PMA) for 1 h at 37° C. Differentiated cells have increased oxidative burst potential which reduces NBT. Levels of reduced NBT were measured at 540 nm absorption.

SMILES	HL-60 cells differentiation
CC1=C(/C=C/C(C)=C/C=C/C(C)=C/C(=O)O)C(C)(C)CCC1 [ATRA, all transretinoic acid, reference compound]	induced differentiation

Reference: US9862713B2, “Substituted bicyclic heteroaryl compounds as RXR agonists” (CONNEXIOS LIFE SCIENCES PVT. LTD., priority 2014, dated 2018)
